{"source": "patent US10688093B2", "about": "“Methods, compositions, and uses of novel Fyn kinase inhibitors” (priority 2015, dated 2020)"}
{"biological_target": "full-length recombinant human FYN A (Homo sapiens (Human), UniProt P06241)", "sequence (P06241 whole entry)": "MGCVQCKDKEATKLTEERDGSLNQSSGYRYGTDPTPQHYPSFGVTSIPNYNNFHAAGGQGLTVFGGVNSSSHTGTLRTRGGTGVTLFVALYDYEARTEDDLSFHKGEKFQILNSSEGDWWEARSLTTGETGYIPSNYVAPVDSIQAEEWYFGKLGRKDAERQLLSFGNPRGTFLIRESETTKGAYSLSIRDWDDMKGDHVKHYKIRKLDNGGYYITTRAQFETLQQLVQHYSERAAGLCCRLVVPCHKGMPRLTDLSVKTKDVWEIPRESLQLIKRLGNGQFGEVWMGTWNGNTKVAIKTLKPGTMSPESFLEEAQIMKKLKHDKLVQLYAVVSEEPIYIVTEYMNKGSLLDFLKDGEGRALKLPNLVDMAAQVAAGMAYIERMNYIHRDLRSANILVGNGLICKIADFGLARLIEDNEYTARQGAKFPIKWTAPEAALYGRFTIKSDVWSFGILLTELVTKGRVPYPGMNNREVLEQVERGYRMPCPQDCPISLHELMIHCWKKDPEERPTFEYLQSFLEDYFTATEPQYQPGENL", "assay": "ADP-Glo Kinase Assay of FYN kinase inhibition", "format": "biochemical", "settings": "primary screen, initial compounds", "source_text": "The chemical library was comprised of the SoftFocus ATP-competitive hinge binding compounds described by Harris, C. J., Hill, R. D., Sheppard, D. W., et al., The Design and Application of Target-Focused Compound Libraries. Combinatorial Chemistry and High Throughput Screening 14:521-31 (2011). The specific pharmacore chemistries included SFK52 comprising 6-[R2]-3-[R1]imidazo[1,2-b] pyridazine compounds, SFK33 comprising N-(3-[R2] imidazo [1,2-b] pyridazin-6-yl) [R1] amine compounds, SFK49 comprising N-(5-[R2] imidazo [2,1-b][1,3,4] thiadiazol-2-yl)[R1]-amine compounds, SFK 40 comprising 5-[R2]-3-[R1] pyridin-2-amine compounds, SFK43 comprising 6-[R2]-3-[R1]imidazo[1,2-a]pyrazine compounds, and SFK63. The chemical structures of the initial 600 potential kinase inhibitors are presented in Table 3, with those chosen for additional analysis presented in Table 4. Comparison of the compounds presented in Table 1 and those of Tables 2, 3 and 4, illustrate the novelty of the chemical structures claimed herein.\nFYN kinase (10 micrograms) was from the FYN A Kinase Enzyme System (V3571, Promega UK Ltd.), a full-length recombinant human FYN A containing an N-terminal GST tag of about 85 kDa, expressed by bacullovirus in […] insect cells, supplied at a concentration of 0.1 microgram/microliter in 5×reaction buffer. The FYN substrate, a 12 amino acid peptide of the sequence […], containing a single tyrosine phosphorylation site, was custom synthesized (Peptide Synthetics, Peptide Protein Research, Fareham, UK) and supplied as a 4 mg/ml aqueous solution. All other reagents were obtained from Sigma (Sigma-Aldrich, Gillingham, Dorset, UK), with the exception of UltraPure ATP (V9102, Promega UK Ltd.) and the ATP-competitive broad spectrum protein kinase inhibitor staurosporine (569397, Merck Millipore, Watford, Hertfordshire, UK), or as otherwise indicated.\nThe assay procedure determines the IC50 of each potential FYN kinase inhibitor by measuring the enzyme catalyzed ATP-dependent phosphorylation of the FYN substrate peptide. The ADP-Glo™ Kinase Assay is specifically designed to quantify kinase activity by measuring the ADP produced in the reaction The reaction buffer comprises 40 mM Tris.HCl (pH 7.5), 20 mM MgCl2, 0.1 mg/ml BSA and 5 microM DTT. Individual compounds within the chemical library were dissolved in DMSO at known concentrations. Briefly, 2.5 microliters of reaction buffer containing 3 picograms of FYN kinase and serial dilutions of each potential FYN kinase inhibitor (9 3-fold dilutions of a 10 micromolar top sample) are placed into each well of a 384 well microtiter plate and incubated at room temperature for 30 minutes. An additional 2.5 microliters of reaction buffer containing 100 picograms of the FYN substrate and 12.5 picomoles of ATP are then added to each well and the reaction carried out for 90 minutes at room temperature. The reactions are terminated by addition of 5 microliters of the ADP-Glo™ Reagent component of the ADP-Glo™ Kinase Assay kit to each well. The ADP-Glo™ Reagent comprises an ATP-dependent adenylate cyclase, an inorganic pyrophosphatase and an excess of staurosporine. The adenylate cyclase converts the remaining ATP to cAMP and pyrophospahte, the pyrophosphatase converts the pyrophosphate to phosphate and the staurosporine inhibits the activity of the FYN kinase, the net effect is to remove all residual ATP while preserving the ADP produced by FYN kinase. The terminated reactions are incubated for 40 minutes at room temperature, prior to addition of the Kinase Detection Reagent component of the ADP-Glo™ Kinase Assay kit to each well. The Kinase Detection Reagent comprises pyruvate kinase, phosphoenol pyruvate (PEP), luciferin and luciferase. The pyruvate kinase converts PEP to pyruvate and in the process generates ATP from the residual ADP present in the terminated reaction. […]", "units": {"IC50": "nM"}}
{"compound": "COc1ccc(-c2cnc3ccc(N[C@H](CO)C(C)C)nn23)cc1OC", "note": "[229_0254_0079, (2S)-2-[[3-(3,4-dimethoxyphenyl)imidazo[1,2-b]pyridazin-6-yl]amino]-3-methyl-butan-1-ol]", "IC50": 778}
{"compound": "CC(=O)Nc1cccc(-c2cnc3ccc(N[C@H](CO)C(C)C)nn23)c1", "note": "[229_0254_0081, N-[3-[6-[[(1S)-1-(hydroxymethyl)-2-methyl-propyl]amino]imidazo[1,2-b]pyridazin-3-yl]phenyl] acetamide]", "IC50": 801}
{"compound": "CC(C)[C@@H](CO)Nc1ccc2ncc(-c3ccc(C#N)cc3)n2n1", "note": "[229_0254_0086, 4-[6-[[(1S)-1-(hydroxymethyl)-2-methyl-propyl]amino]imidazo[1,2-b]pyridazin-3-yl]benzonitrile]", "IC50": 3180}
{"compound": "CC(C)[C@@H](CO)Nc1ccc2ncc(-c3ccc(N)cc3)n2n1", "note": "[229_0254_0333, (2S)-2-[[3-(4-aminophenyl)imidazo[1,2-b]pyridazin-6-yl]amino]-3-methyl-butan-1-ol]", "IC50": 3050}
{"compound": "c1ccc(CNc2ccc3ncc(-c4ccc5c(c4)OCO5)n3n2)nc1", "note": "[229_4007_0068, 3-(1,3-benzodioxol-5-yl)-N-(2-pyridylmethyl) imidazo[1,2-b]pyridazin-6-amine]", "IC50": 797}
{"compound": "COc1cccc(-c2cnc3ccc(NCC4CC4)nn23)c1", "note": "[229_4051_4140, N-(cyclopropyl-methyl)-3-(3-methoxyphenyl) imidazo[1,2-b]pyridazin-6-amine]", "IC50": 3300}
{"compound": "COc1cc(-c2cnc3ccc(NCc4ccc(C)cc4C)nn23)ccc1O", "note": "[229_4319_0314, 4-[6-[(2,4-dimethylphenyl)methylamino]imidazo[1,2-b]pyridazin-3-yl]-2-methoxy-phenol]", "IC50": 5310}
{"compound": "COc1cccc(-c2ccc3c(-c4ccc(C(=O)NCCCN(C)C)cc4)n[nH]c3n2)c1F", "note": "[267_0180_7936, N-[3-(dimethylamino)propyl]-4-[6-(2-fluoro-3-methoxy-phenyl)-1H-pyrazolo[3,4-b]pyridin-3-yl]benzamide]", "IC50": 7340}
{"compound": "COc1ccc(Nc2ccn3ncc(-c4cccc(O)c4)c3n2)cn1", "note": "[294_0042_0284, 3-[5-[(6-methoxy-3-pyridyl)amino]pyrazolo[1,5-a]pyrimidin-3-yl]phenol]", "IC50": 3390}
{"compound": "COc1cccc(-c2cnn3ccc(Nc4ccc(OC)nc4)nc23)c1", "note": "[294_0042_4140, 3-(3-methoxyphenyl)-N-(6-methoxy-3-pyridyl)pyrazolo [1,5-a]pyrimidin-5-amine]", "IC50": 5310}
{"compound": "COc1ccc(Nc2ccn3ncc(-c4cccc(C(C)=O)c4)c3n2)cn1", "note": "[294_0042_4145, 1-[3-[5-[(6-methoxy-3-pyridyl)amino]pyrazolo[1,5-a]pyrimidin-3-yl]phenyl] ethanone]", "IC50": 1640}
{"compound": "COc1cncc(-c2cnn3ccc(Nc4ccc(N5CCOCC5)cc4)nc23)c1", "note": "[294_0088_0196, 3-(5-methoxy-3-pyridyl)-N-(4-morpholino-phenyl)pyrazolo [1,5-a]pyrimidin-5-amine]", "IC50": 2250}
{"compound": "Cc1ccc(Nc2ccn3ncc(-c4cccc(O)c4)c3n2)cc1NS(C)(=O)=O", "note": "[294_0123_0284, N-[5-[[3-(3-hydroxyphenyl)pyrazolo[1,5-a]pyrimidin-5-yl]amino]-2-methyl-phenyl]methane-sulfonamide]", "IC50": 3170}
{"compound": "Nc1cccc(-c2cnn3ccc(NCc4cccnc4)nc23)c1", "note": "[294_4003_0005, 3-(3-amino-phenyl)-N-(3-pyridylmethyl) pyrazolo[1,5-a]pyrimidin-5-amine]", "IC50": 2510}
{"compound": "COc1ccc(-c2cnn3ccc(NCc4cccnc4)nc23)cc1OC", "note": "[294_4003_0079, 3-(3,4-dimethoxy-phenyl)-N-(3-pyridylmethyl) pyrazolo[1,5-a]pyrimidin-5-amine]", "IC50": 1640}
{"compound": "COc1ccccc1-c1cnn2ccc(NCc3cccnc3)nc12", "note": "[294_4003_0083, 3-(2-methoxyphenyl)-N-(3-pyridylmethyl) pyrazolo[1,5-a]pyrimidin-5-amine]", "IC50": 1220}
{"compound": "COc1cc(-c2cnn3ccc(NCc4cccnc4)nc23)cc(OC)c1OC", "note": "[294_4003_0087, N-(3-pyridylmethyl)-3-(3,4,5-trimethoxy-phenyl) pyrazolo[1,5-a]pyrimidin-5-amine]", "IC50": 2350}
{"compound": "COc1ccc(-c2cnn3ccc(Nc4ccc(C(C)C)cc4)nc23)cc1", "note": "[294_6937_0280, N-(4-isopropylphenyl)-3-(4-methoxyphenyl) pyrazolo[1,5-a]pyrimidin-5-amine]", "IC50": 4180}
{"compound": "COc1cc(-c2cnc(N)c(-c3cccc(N)c3)c2)cc(OC)c1OC", "note": "[382_0005_0087, 3-(3-aminophenyl)-5-(3,4,5-trimethoxy-phenyl)pyridin-2-amine]", "IC50": 2970}
{"compound": "Cc1cc(-c2cnc(N)c(-c3ccncc3)c2)cc(C)c1O", "note": "[382_0069_0315, 4-[6-amino-5-(4-pyridyl)-3-pyridyl]-2,6-dimethyl-phenol]", "IC50": 1700}
{"compound": "COc1cc(-c2cc(-c3ccc(OCCCN(C)C)nc3)cnc2N)cc(OC)c1OC", "note": "[382_0087_0002, 5-[6-[3-(dimethylamino)propoxy]-3-pyridyl]-3-(3,4,5-trimethoxy-phenyl)pyridin-2-amine]", "IC50": 530}
{"compound": "COc1cc(-c2cc(-c3ccccc3)cnc2N)cc(OC)c1OC", "note": "[382_0087_0061, 5-phenyl-3-(3,4,5-trimethoxy-phenyl)pyridin-2-amine]", "IC50": 893}
{"compound": "COc1cc(-c2cc(-c3ccccc3Oc3ccccc3)cnc2N)cc(OC)c1OC", "note": "[382_0087_0063, 5-(2-phenoxyphenyl)-3-(3,4,5-trimethoxy-phenyl)pyridin-2-amine]", "IC50": 9010}
{"compound": "COc1cc(-c2cc(-c3cc4ccccc4s3)cnc2N)cc(OC)c1OC", "note": "[382_0087_0076, 5-(benzothiophen-2-yl)-3-(3,4,5-trimethoxyphenyl) pyridin-2-amine]", "IC50": 2690}
{"compound": "COc1cc(-c2cc(-c3cccc(N(C)C)c3)cnc2N)cc(OC)c1OC", "note": "[382_0087_0135, 5-[3-(dimethyl-amino)phenyl]-3-(3,4,5-trimethoxyphenyl) pyridin-2-amine]", "IC50": 595}
{"compound": "COc1cc(-c2cc(-c3cccc(C(=O)NCCO)c3)cnc2N)cc(OC)c1OC", "note": "[382_0087_0192, 3-[6-amino-5-(3,4,5-trimethoxy-phenyl)-3-pyridyl]-N-(2-hydroxyethyl) benzamide]", "IC50": 485}
{"compound": "COc1cc(-c2cc(-c3ccc(N4CCN(C)CC4)cc3)cnc2N)cc(OC)c1OC", "note": "[382_0087_0218, 5-[4-(4-methylpiperazin-1-yl)phenyl]-3-(3,4,5-trimethoxyphenyl)pyridin-2-amine]", "IC50": 322}
{"compound": "COc1ccc(-c2cnc(N)c(-c3cc(OC)c(OC)c(OC)c3)c2)cc1", "note": "[382_0087_0280, 5-(4-methoxyphenyl)-3-(3,4,5-trimethoxy-phenyl)pyridin-2-amine]", "IC50": 2980}
{"compound": "COc1cc(-c2cc(-c3cccc(O)c3)cnc2N)cc(OC)c1OC", "note": "[382_0087_0284, 3-[6-amino-5-(3,4,5-trimethoxy-phenyl)-3-pyridyl]phenol]", "IC50": 723}
{"compound": "COc1ccc(-c2cnc(N)c(-c3cc(OC)c(OC)c(OC)c3)c2)cn1", "note": "[382_0087_0311, 5-(6-methoxy-3-pyridyl)-3-(3,4,5-trimethoxyphenyl) pyridin-2-amine]", "IC50": 1060}
{"compound": "COc1cc(-c2cc(-c3cccc(F)c3)cnc2N)cc(OC)c1OC", "note": "[382_0087_0313, 5-(3-fluorophenyl)-3-(3,4,5-trimethoxy-phenyl)pyridin-2-amine]", "IC50": 1520}
{"compound": "COc1cc(-c2cc(-c3cc(C)c(O)c(C)c3)cnc2N)cc(OC)c1OC", "note": "[382_0087_0315, 4-[6-amino-5-(3,4,5-trimethoxyphenyl)-3-pyridyl]-2,6-dimethyl-phenol]", "IC50": 712}
